According to PMC4569013, “Massive Bioaccumulation and Self‐Assembly of Phenazine Compounds in Live Cells” (Advanced Science, 2015):

Tests used:
MDCK epithelial cells = experiment: Confocal fluorescence microscopy, intracellular localization of inclusions; assay type: cell-based, Canine; conditions: 5 × 10^−6 M, 72 h, live cells
Protocol: (§1) Confocal Fluorescent Microscopy: A Nikon A1 confocal microscope was used for further investigation of live cells incubated with chiral pairs of compounds (T and U) and the parent compound, P. Since crystals or vesicular forms containing chemicals inside the cells incubated with Compound P, T, or U were fluorescent when viewed with the TRITC filter sets, intracellular distribution of these compounds in RAW264.7 or MDCK cells were visualized using a Nikon A1 confocal microscopy (Nikon Instruments Inc., Melville, NY) equipped with diode‐based lasers and a Nikon Apo 60×/1.4 NA oil immersion lens. Briefly, RAW264.7 macrophages or MDCK epithelial cells were seeded in the 8‐well Nunc Lab‐Tek II chambered (#1.5) cover glasses (Thermo Scientific, Pittsburgh, PA) at a density of 8 × 10^3 cells cm^−2 (RAW264.7 cells) or 1.5 × 10^4 cells cm^−2 (MDCK cells) and allowed to adhere overnight (37 °C, 5% CO2). Then, 5 × 10^−6 M of Compound “P” or the related isomers, “T” or “U” in DMEM with 5% FBS (300 μL) was added to the cells and the cells were incubated for 72 h (37 °C, 5% CO2). For live cell imaging, after the removal of media, cells were washed with HBSS buffer twice. Hoechst 33342 (Invitrogen, Carlsbad, CA) was used for staining cell nuclei and FM 1‐43 (Molecular Probes T35356, Invitrogen) for the plasma membrane. Cells were incubated with 300 μL of 1:1 (v/v) dye mixtures of 5 μg mL^−1 Hoechst 33342 and 7 × 10^−6 M FM 1‐43 in HBSS for 15 min at room temperature. Without fixative, the confocal imaging of the live cells was performed using lasers for DAPI (excitation/emission wavelength: 405 nm/450 ± 25 nm), FITC (488 nm/525 ± 25 nm), and TRITC (561 nm/596 ± 25 nm) channels. Z‐stack images of the cells were captured along the Z‐axis (interval, 1 μm) in three fluorescence channels and analyzed by using the Nikon NIS‐Elements 3.2 confocal software (Nikon Instruments Inc., Melville, NY). […]

RAW264.7 macrophages [1] = experiment: as above; assay type: cell-based; conditions: 5 × 10^−6 M, 72 h, live cells
Protocol: as §1

RAW264.7 macrophages [2] = experiment: Cell accumulation experiment, transmitted light microscopy of cellular staining pattern; assay type: cell-based; conditions: for Inferred uptake: inferred from staining pattern after 72 hour incubation; for Observed cellular staining pattern (Notes): live cells, 72 hour incubation, 5 × 10^−6 M (2.5 × 10^−6 M for I); for Staining in fixed cells: methanol-fixed cells incubated 72 h with compound (control)
Protocol: Cell Accumulation Experiments and Transmitted Light Microscopic Examination: […] After a 24 h incubation (37 °C, 5% CO2), cells were incubated with solution of clofazmine or its chemical derivatives (300 μL of 5 × 10^−6 m concentration; measured cell viability ranging from 85% to 97% for all compounds tested at this concentration; Figure 1) in DMEM (no phenol red; plus 1 × 10^−3 M sodium pyruvate and 5% FBS). For Compound “I,” 2.5 × 10^−6 M of compound solution in media was used for the RAW 264.7 macrophages incubation because of lower cell viability at higher concentrations (IC50 = (3.95 ± 0.11) × 10^−6 M). A solution of clofazmine or other chemical derivatives was made by a diluting stock solutions (2.5 × 10^−3 M in DMSO; 10 × 10^−3 M stock in DMSO were stored at −80 °C for further use) into DMEM with 5% FBS. […] The extracellular concentration of each compound in each well was maintained by daily replacement of the compound‐containing media. After 72 h of incubation with clofazmine or its derivatives, compound‐containing media were removed and cells were washed twice with media. Live cells in the chambered glasses were examined under inverted transmitted light microscopy (Nikon Eclipse Ti microscope) with a 40× objective and color camera. As a control experiment, fixed cells were also microscopically examined after incubation with the compounds. Cells were seeded on the chambered cover glasses at the density of 1.5 × 10^4 cells cm^−2 (RAW264.7 macrophages) or 2.5 × 10^4 cells cm^−2 (MDCK epithelial cells). After an overnight incubation (37 °C, 5% CO2), media was removed from the wells and cold methanol (−20 °C) was added to each well. After 30 s, remaining methanol was removed by washing with media with 5% FBS. Fixed cells were incubated (37 °C, 5% CO2) with clofazmine or derivatives (300 μL of 5 × 10^−6 M; 2.5 × 10^−6 M for I) in media with 5% FBS. After 72 h, fixed RAW264.7 or MDCK cells were washed with media and examined using the same transmitted microscopy conditions as the live cells.

[3] = Solubility measurements in cell culture media (DMEM) with or without FBS; assay type: physicochemical; conditions: at the concentrations added to the cells
Protocol: Solubility Measurements: Solutions containing the phenazine derivatives were made in cell culture media (DMEM) with or without FBS (10%). After a 24 h incubation, the solutions were centrifuged (10 000 × g, 10 min), the supernatant was removed and the precipitate was dissolved in 9 M H2SO4. The supernatant was diluted with 10 M NaOH to precipitate the remaining solubilized compound. The diluted supernatant was centrifuged (10 000 × g, 10 min) followed by dissolution of the precipitate in 9 M H2SO4. Both fractions were spectrophotometrically measured with a Biotek microplate spectrophotometer (λ = 540 nm) and phenazine content was determined using calibrated clofazimine standards.

[4] = design: method as in PMID 21800872; conditions: DMEM with 5% FBS; cited from earlier work
RAW264.7 macrophages [5] = experiment: XTT colorimetric cytotoxicity assay; assay type: cell-based; conditions: Mus musculus, RAW 264.7 macrophages, 72 h incubation, read-out: IC50 (cell viability, XTT)
Protocol: Cytotoxicity Measurements: A 3′‐bis(4‐methoxy‐6‐nitro)benzene‐sulfonic acid hydrate (XTT) colorimetric assay was performed to assess the cytotoxicity of the clofazmine derivatives in RAW264.7 macrophages or MDCK epithelial cells using a Cell Proliferation Kit II (Roche Chemicals, Indianapolis, IN). […] The absorbance value in each well was measured at 495 nm against a reference wavelength at 650 nm using a microplate reader (Synergy 2, BioTek Instruments, Winooski, VT). […] The IC50 value for each compound was calculated from the concentration‐response curve generated by a nonlinear regression (curve fit) method in GraphPad Prism version 5.0 (GraphPad Software, Inc., San Diego, CA). The concentration of clofazimine or its chemical derivatives used for further in vitro cell studies was determined based on cell viability (%) assay results (see the next section).

Row | SMILES | Intracellular localization of compound (fluorescence, TRITC channel) (MDCK epithelial cells) | Intracellular localization of compound (fluorescence, TRITC channel) (RAW264.7 macrophages [1]) | Inferred uptake (RAW264.7 macrophages [2]) | Observed cellular staining pattern (Notes) (RAW264.7 macrophages [2]) | Staining in fixed cells (RAW264.7 macrophages [2]) | Solubility in serum containing media [3] | Precipitate formation in media [4] | IC50 (RAW264.7 macrophages [5]) [µM] | Cellular staining relative to clofazimine (RAW264.7 macrophages [2]; live macrophages, 72 h)
1 | CC(CN=c1cc2n(-c3ccc(Cl)cc3)c3ccccc3nc-2cc1Nc1ccc(Cl)cc1)c1ccccc1 (centres unmarked) [Compound T] | localized at the periphery of the cell nuclei | localized at the periphery of the cell nuclei | Moderate | Faint orange perinuclear vesicles are present in live cells | Staining not observed in fixed cells |  |  |  | 
2 | CC(C)/N=c1\cc2n(-c3ccc(Cl)cc3)c3ccccc3nc-2cc1Nc1ccc(Cl)cc1 [Clofazimine, clofazimine, reference compound] |  |  | Moderate | Orange-brown staining pattern associated with perinuclear cytoplasmic vesicles |  | stably solubilized | did not form visible precipitates |  | 
3 | OCCN=c1cc2n(-c3ccc(Cl)cc3)c3ccccc3nc-2cc1Nc1ccc(Cl)cc1 [I] |  |  | Excellent | Dark brown, crystal-like inclusions present in live cells | absent in fixed cells |  |  | 3.95 | comparable in morphology and intensity to those of clofazimine
